{"source": "patent US20170202932A1", "about": "“METHODS FOR INHIBITING NEURON APOPTOSIS AND NECROSIS” (NEWSOUTH INNOVATIONS PTY LIMITED, priority 2012, published 2017)", "origin": "cited, not measured here", "key": {"[1]": {"molecular_target": "T1, TRPC3 (Homo sapiens, UniProt Q13507)", "T1 sequence (Q13507 1-921)": "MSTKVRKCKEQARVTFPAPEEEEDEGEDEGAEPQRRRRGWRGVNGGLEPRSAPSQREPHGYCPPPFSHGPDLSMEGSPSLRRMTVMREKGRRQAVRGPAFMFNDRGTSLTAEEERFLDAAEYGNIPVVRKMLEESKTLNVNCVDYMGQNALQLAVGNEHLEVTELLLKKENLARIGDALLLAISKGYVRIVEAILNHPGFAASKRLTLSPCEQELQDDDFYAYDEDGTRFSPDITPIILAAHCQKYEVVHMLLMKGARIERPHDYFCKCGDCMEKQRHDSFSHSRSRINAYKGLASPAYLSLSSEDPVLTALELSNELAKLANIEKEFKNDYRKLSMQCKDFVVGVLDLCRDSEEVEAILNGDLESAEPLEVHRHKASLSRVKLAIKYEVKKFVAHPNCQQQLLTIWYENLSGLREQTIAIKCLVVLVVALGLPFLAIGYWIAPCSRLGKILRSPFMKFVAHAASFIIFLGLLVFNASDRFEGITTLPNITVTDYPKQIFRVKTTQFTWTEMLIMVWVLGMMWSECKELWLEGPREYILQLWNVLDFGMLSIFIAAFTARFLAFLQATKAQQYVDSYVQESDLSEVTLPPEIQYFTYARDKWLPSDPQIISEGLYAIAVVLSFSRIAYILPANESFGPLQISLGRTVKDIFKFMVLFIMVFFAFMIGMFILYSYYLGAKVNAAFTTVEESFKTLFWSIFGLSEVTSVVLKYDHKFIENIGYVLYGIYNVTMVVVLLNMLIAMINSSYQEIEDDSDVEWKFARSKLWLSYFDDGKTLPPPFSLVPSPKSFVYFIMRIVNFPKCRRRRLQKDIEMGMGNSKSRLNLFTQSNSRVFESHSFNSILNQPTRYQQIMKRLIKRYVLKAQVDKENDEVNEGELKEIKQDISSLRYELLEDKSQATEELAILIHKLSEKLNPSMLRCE", "conditions": "cited from earlier work"}, "[2]": {"system": "other TRPC channels", "conditions": "cited from earlier work"}}, "data": [{"smiles": "CCOC(=O)c1cnn(-c2ccc(NC(=O)C(Cl)=C(Cl)Cl)cc2)c1C(F)(F)F", "note": "[Pyr3, ethyl-1-(4-(2,3,3-trichloroacrylamide)phenyl)-5-(trifluoromethyl)-1H-pyrazole-4-carboxylate]", "values": [{"measurement": "inhibition of TRPC3-mediated Ca2+ influx", "setting": "[1]", "result": "selectively inhibit"}, {"measurement": "effect on other TRPC channels", "setting": "[2]", "result": "no effect"}]}]}
